Results as given in patent publication US20210029993A1, “SPATIAL INHIBITORS, DETERRENTS AND REPELLENTS FOR MOSQUITOES AND MIDGES” (BEDOUKIAN RESEARCH, INC., priority 2005, published 2021).

Key:
Format in all cases: in vivo
[1] = tested on: biting midges; test: Spatial inhibition of biting midges, outdoor trap catch; conditions: control trap = 100% catch, lower = more inhibition
Procedure: Two grams of test compound is absorbed onto pieces of absorbent material. These pieces of absorbent material (fragrance release material from Rhopore Inc.) containing absorbed test compound are then placed in a stream of CO2 and r-octenol being released from a biting midges biting midge trap designed to attract biting midges. The test are rotated over a period of 2-5 days in such a manner that both control (trap without test compound) and test compound are tested an equal number of times in each trap employed. The number of biting midges caught in the traps with test compounds is compared to the number of biting midges caught in the trap with no test compound material present. […] Thus, a lowered percentage is indicative of the increasing ability of the test compounds to inhibit the ability of the biting midges sense the target. In Table 6, weight percent (wt %) refers to the weight of the deterring/repelling/inhibiting compound, or combination of compounds, in the composition used in the tests. In the “Percent Caught Relative to Control” column in Table 6, a lower percentage is indicative of the increasing ability of the test compounds to inhibit the ability of the biting midges to sense the target. The weight ratio of the compounds in the combination of compounds is given in parentheses in the “Compound(s)” column of Table 6.

[2] = tested on: female biting midges (Culicoides impunctatus); test: Biting midges feeding test (Plexiglas module, treated membrane); conditions: control = 1.00, lower = more repellent
Procedure: The following tests are employed to illustrate the efficacy of the compounds of this disclosure to effectively act as biting midge deterrents, repellents or as spatial inhibitors for biting midges. […] Biting midges are tested in a two-piece Plexiglas module designed to assess their response to feeding deterrents. […] Water (40° C.) flows through the central cavity of the platform at a rate of 215 ml/min. The top piece of the module consists of six 4.5×4.0×5.0 cm chambers, the floors of which are fitted with a sliding door positioned over a circular opening 3.5 cm in diameter. Biting midges are introduced through an aperture 1 cm in diameter on the front wall of the chambers. For each test, five female biting midges (Culicoides impunctatus) are aspirated into each of five chambers of the top module piece and the apertures are plugged with corks wrapped in plastic film. […] To each well, 77.5 μl of green dye (McCormick Food, Hunt Valley, Md.) are added so that those biting midges imbibing the sugar solution can be identified when crushed at the end of the tests. Each membrane receives 50 μl of acetone or experimental compound solution, applied to 9.6 cm^2 circular area on 0.1 mm-thick membranes made of nylon mesh in a silicone matrix. The membranes are then placed over each well in contact with the sugar solution. The circular openings on the floor of each chamber of the top piece of the module are aligned with each membrane-covered well of the bottom piece. The sliding floors of the chambers are then opened allowing biting midges access to the membranes. The number of biting midges landing on the membranes, and those flying within the apparatus, are recorded each minute for five minutes. After five minutes, any biting midges remaining on the membranes are removed with a metal wire, and the door of the floor of each chamber is closed. The top piece of the module is then placed into a freezer for 20 minutes. In the test designed to assess feeding, biting midges are removed from the frozen module, crushed on white paper towels, and examined for the presence of green dye to indicate that feeding had occurred. The proportions of biting midges feeding per trial are analyzed using a standard generalized linear model with a logit link. Landing and flying scores are repeated measures; five readings are obtained for groups of five biting midges. Thus, to maintain independence among the data, the five readings are summed, and then the sums divided by 25 (the maximum score in each category) to create proportions of biting midges landing and flying. The proportions are then transferred using the standard variance stabilizing transformation for proportions (sin^−1 √y, where y is the proportion), and analyzed using ANOVA (Analysis of Variables). In Table 4, weight percent (wt %) refers to the weight of the deterring/repelling/inhibiting compound, or combination of compounds, in the composition used in the tests. […] The weight ratio of the compounds in the combination of compounds is given in parentheses in the “Compound(s)” column of Table 4.

[3] = tested on: female mosquitoes (Aedes aegypti); test: Mosquitoes feeding test (Plexiglas module, treated membrane over dyed sucrose/ATP solution); conditions: for Feeding Relative To Control: control = 1.00, lower = more repellent; for contact mosquito repellent activity (feeding tests, FIGS. 1 and 3), in words: feeding relative to control
Procedure: The test was conducted at 0900-2100 hours in a walk-in incubator (26° C., 63-80% RH) illuminated by fluorescent lights. Mosquitoes were tested in a two-piece Plexiglas module designed to assess their response to feeding deterrents. The bottom piece of the module was 40×7×4-cm hollow platform supporting six circular wells (diameter=3.8 cm, depth=6 mm). Water (40° C.) flowed through the central cavity of the platform at a rate of 215 ml/min. The top piece of the module consisted of six 4.5×4.0×5.0 cm chambers, the floors of which were fitted with a sliding door positioned over a circular opening 3.5 cm in diameter. Mosquitoes were introduced through an aperture 1 cm in diameter on the front wall of the chambers. For each test, five female mosquitoes (Aedes aegypti) were aspirated into each of five chambers of the top module piece and the apertures were plugged with corks wrapped in plastic film. The wells on the bottom piece of the module were filled with 7 ml of 10% sucrose solution containing ATP (2.9 mg/ml). To each well, 75 μl of green dye (McCormick Food, Hunt Valley, Md.) were added so that those mosquitoes imbibing the sugar solution could be identified when crushed at the end of the tests. Each membrane received 50 ul of acetone or experimental compound solution, applied to 9.6 cm^2 circular area on 0.1 mm-thick membranes made of nylon mesh in a silicone matrix. The membranes were then placed over each well in contact with the sugar solution.
The circular openings on the floor of each chamber of the top piece of the module were aligned with each membrane-covered well of the bottom piece. The sliding floors of the chambers were then opened allowing mosquitoes access to the membranes. The number of mosquitoes landing on the membranes, and those flying within the apparatus, were recorded each minute for five minutes. After five minutes, any mosquitoes remaining on the membranes were removed with a metal wire, and the door of the floor of each chamber was closed. The top piece of the module was then placed into a freezer for 20 minutes. In the test designed to assess feeding, mosquitoes were removed from the frozen module, crushed on white paper towels, and examined for the presence of green dye to indicate that feeding had occurred. The proportions of mosquitoes feeding per trial were analyzed using a standard generalized linear model with a logit link. Landing and flying scores are repeated measures; five reading were obtained for groups of five mosquitoes. Thus, to maintain independence among the data, the five readings were summed, and then the sums divided by 25 (the maximum score in each category) to create proportions of mosquitoes landing and flying. The proportions were then transferred using the standard variance stabilizing transformation for proportions (sin^−1 √y, where y is the proportion), and analyzed using ANOVA (Analysis of Variables)
In Table 1, weight percent (wt %) refers to the weight of the deterring/repelling/inhibiting compound, or combination of compounds, in the composition used in the tests. […] The weight ratio of the compounds in the combination of compounds is given in parentheses in the “Compound(s)” column of Table 1.

[4] = 85 wt % compound(s) in composition
[5] = 80 wt % compound(s) in composition
[6] = 82.5 wt % compound(s) in composition
[7] = 92.5 wt % compound(s) in composition
[8] = 77.5 wt % compound(s) in composition
[9] = 90 wt % compound(s) in composition
[10] = 87.5 wt % compound(s) in composition
[11] = 95 wt % compound(s) in composition

For `C=C(C)[C@@H]1CC=C(C)[C@H](O)C1` (relative stereo) [cis-Carveol], the “Percent Caught Relative To Control” value [1, 4] was 24%, the “Feeding Relative To Control” value [2, 4] was 0.67 and the “Feeding Relative To Control” value [3, 4] was 0.66.
For `Cc1ccc(C(C)(C)O)cc1`, the “Percent Caught Relative To Control” value [1, 5] was 25%, the “Feeding Relative To Control” value [2, 5] was 0.73 and the “Feeding Relative To Control” value [3, 5] was 0.72. The “contact mosquito repellent activity (feeding tests, FIGS. 1 and 3), in words” value (from here on “contact mosquito repellent activity”) [3] was “especially effective as contact mosquito repellents”.
For `CC(C)=CCCC(C)=CC=O` [Citral], the “Percent Caught Relative To Control” value [1, 6] was 12%, the “Feeding Relative To Control” value [2, 6] was 0.60 and the “Feeding Relative To Control” value [3, 6] was 0.60. For the same compound, the “contact mosquito repellent activity” value [3] was “especially effective as contact mosquito repellents”.
In the case of `C=C(C)C1CCC2(C)OC2C1` (single isomer, unassigned; (-)) [(−) Limonene oxide], the “Percent Caught Relative To Control” value [1, 7] is reported as 16%, the “Feeding Relative To Control” value [2, 7] is reported as 0.75 and the “Feeding Relative To Control” value [3, 7] is reported as 0.76.
For `C=C(C)[C@@H]1CC=C(C)[C@@H](O)C1` (relative stereo) [trans-Carveol], the “Percent Caught Relative To Control” value [1, 8] was 22%, the “Feeding Relative To Control” value [2, 8] was 0.63 and the “Feeding Relative To Control” value [3, 8] was 0.64.
For `C=C[C@@](C)(O)CCC=C(C)C` [d-Linalool, reference compound], the “Percent Caught Relative To Control” value [1, 5] was 6%, the “Feeding Relative To Control” value [2, 5] was 0.31 and the “Feeding Relative To Control” value [3, 5] was 0.32.
For `CC1=CCC(O)(C(C)C)CC1` (stereo not shown) [Terpinen-4-ol], the “Percent Caught Relative To Control” value [1, 9] was 21%, the “Feeding Relative To Control” value [2, 9] was 0.74 and the “Feeding Relative To Control” value [3, 9] was 0.74.
For `CC(C)=CCCC(C)CC=O` (stereo not shown) [Citronellal], the “Percent Caught Relative To Control” value [1, 7] was 12%, the “Feeding Relative To Control” value [2, 7] was 0.64 and the “Feeding Relative To Control” value [3, 7] was 0.62. For the same compound, the “contact mosquito repellent activity” value [3] was “especially effective as contact mosquito repellents”.
For `CC(=O)OCCC(C)CCC=C(C)C` (stereo not shown) [Citronellyl acetate], the “Percent Caught Relative To Control” value [1, 5] was 25%, the “Feeding Relative To Control” value [2, 5] was 0.67 and the “Feeding Relative To Control” value [3, 5] was 0.65.
For (+) Limonene oxide, the “Percent Caught Relative To Control” value [1, 10] was 19%, the “Feeding Relative To Control” value [2, 10] was 0.77 and the “Feeding Relative To Control” value [3, 10] was 0.78.
With `CC(=O)OC/C=C(\C)CCC=C(C)C` [Geranyl acetate] the “Percent Caught Relative To Control” value [1, 4] was 29%, the “Feeding Relative To Control” value [2, 4] was 0.64 and the “Feeding Relative To Control” value [3, 4] was 0.68. The “contact mosquito repellent activity” value [3] was “especially effective as contact mosquito repellents”.
In the case of `C=C(C)[C@H]1CC=C(C)C(=O)C1` [d-Carvone], the “Percent Caught Relative To Control” value [1, 8] is reported as 13%, the “Feeding Relative To Control” value [2, 8] is reported as 0.65 and the “Feeding Relative To Control” value [3, 8] is reported as 0.64. The “contact mosquito repellent activity” value [3] was “especially effective as contact mosquito repellents”.
In the case of `CC(C)[C@@H]1CC[C@@H](C)C(=O)C1` [Tetrahydrocarvone], the “Percent Caught Relative To Control” value [1, 11] is reported as 25%, the “Feeding Relative To Control” value [2, 11] is reported as 0.72 and the “Feeding Relative To Control” value [3, 11] is reported as 0.70. For the same compound, the “contact mosquito repellent activity” value [3] was “especially effective as contact mosquito repellents”.
`CC(=O)OC/C=C(/C)CCC=C(C)C` [Neryl acetate] was tested, and the “Percent Caught Relative To Control” value [1, 8] was 20%, the “Feeding Relative To Control” value [2, 8] was 0.72 and the “Feeding Relative To Control” value [3, 8] was 0.76. The “contact mosquito repellent activity” value [3] was “especially effective as contact mosquito repellents”.
For l-Carvone, the “Percent Caught Relative To Control” value [1, 6] was 12%, the “Feeding Relative To Control” value [2, 6] was 0.62 and the “Feeding Relative To Control” value [3, 6] was 0.62. For the same compound, the “contact mosquito repellent activity” value [3] was “especially effective as contact mosquito repellents”.
With `CC1=CCC(C(C)(C)O)CC1` (stereo not drawn) [α-terpineol] the “Percent Caught Relative To Control” value [1, 9] was 16%, the “Feeding Relative To Control” value [2, 9] was 0.80 and the “Feeding Relative To Control” value [3, 9] was 0.80. The “contact mosquito repellent activity” value [3] was “especially effective as contact mosquito repellents”.
For `C=CC(C)(CCC=C(C)C)OC(C)=O` (stereo not shown) [Linaloyl acetate], the “Percent Caught Relative To Control” value [1, 11] was 16%, the “Feeding Relative To Control” value [2, 11] was 0.72 and the “Feeding Relative To Control” value [3, 11] was 0.74. The “contact mosquito repellent activity” value [3] was “especially effective as contact mosquito repellents”.
`CC(C)=CCCC(C)CCO` (stereo not shown) [Citronellol] was tested, and the “Percent Caught Relative To Control” value [1, 10] was 12%, the “Feeding Relative To Control” value [2, 10] was 0.64 and the “Feeding Relative To Control” value [3, 10] was 0.62.
